The source of these data is patent US8003660B2, “Modulators of muscarinic receptors” (Vertex Pharmaceuticals Incorporated, priority 2006, dated 2011).

Where only a bound is given, the exact number is not on record here.

Common to all, as to assay type: cell-based
Assay [1] addresses T1, M2 muscarinic receptor (Homo sapiens, UniProt P08172).
T1 construct: expressed in transfected cells; host or cells: CHO (M2-CHO)
T1 sequence (P08172 1-466): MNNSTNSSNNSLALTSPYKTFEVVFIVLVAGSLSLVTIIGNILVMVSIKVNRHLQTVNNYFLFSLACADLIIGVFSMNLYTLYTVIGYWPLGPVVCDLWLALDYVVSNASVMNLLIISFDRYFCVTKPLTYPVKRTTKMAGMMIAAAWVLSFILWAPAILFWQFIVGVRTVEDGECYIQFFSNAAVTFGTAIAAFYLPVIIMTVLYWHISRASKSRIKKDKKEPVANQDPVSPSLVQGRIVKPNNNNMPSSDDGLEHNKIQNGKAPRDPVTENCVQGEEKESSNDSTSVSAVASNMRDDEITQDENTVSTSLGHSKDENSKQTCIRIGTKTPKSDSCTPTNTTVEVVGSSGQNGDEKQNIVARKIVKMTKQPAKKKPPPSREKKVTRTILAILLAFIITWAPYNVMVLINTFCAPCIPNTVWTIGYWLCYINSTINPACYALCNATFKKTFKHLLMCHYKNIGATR
The assay can be described thus: Functional mobilization of intracellular calcium (FLIPR) in CHO cells expressing M2. To be noted: for EC50: CHO cells expressing M2, FLIPR calcium; for Emax: CHO, 100% = maximum response obtained with the Carbachol control, read-out: M2 Efficacy. The method in brief: (§1)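 Calcium flux is read on FLIPR over 60 sec at 488/540 nm in muscarinic-receptor CHO lines. Antagonist mode adds carbachol at EC80 after 15 min compound preincubation or with simultaneous co-application. Agonist mode adds compound alone. Cells carry Fluo-3 or Calcium 3 dye in probenecid-containing pH 7.4 buffer, 0.5% DMSO final.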
Background: A change in cytosolic calcium serves as a functional read-out for many receptors and channels.

Assay [2] concerns the target T2, M1 muscarinic receptor (Homo sapiens, UniProt P11229).
T2 construct: expressed in transfected cells; host or cells: CHO (M1-CHO)
T2 sequence (P11229 1-460): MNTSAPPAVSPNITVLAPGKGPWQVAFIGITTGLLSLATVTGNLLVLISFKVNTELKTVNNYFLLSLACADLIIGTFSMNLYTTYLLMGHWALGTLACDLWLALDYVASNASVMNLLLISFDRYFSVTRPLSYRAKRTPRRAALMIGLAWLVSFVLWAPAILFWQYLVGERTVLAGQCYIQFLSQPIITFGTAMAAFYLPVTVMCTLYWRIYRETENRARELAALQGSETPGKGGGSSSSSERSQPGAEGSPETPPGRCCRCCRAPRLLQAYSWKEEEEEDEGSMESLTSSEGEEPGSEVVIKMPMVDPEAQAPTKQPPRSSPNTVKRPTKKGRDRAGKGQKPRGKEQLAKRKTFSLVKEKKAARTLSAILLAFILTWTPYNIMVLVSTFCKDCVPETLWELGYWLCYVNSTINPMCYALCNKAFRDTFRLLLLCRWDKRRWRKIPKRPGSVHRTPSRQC
The assay can be described thus: Functional mobilization of intracellular calcium (FLIPR) in CHO cells expressing M1. To be noted: for EC50: CHO cells expressing M1, FLIPR calcium; for Emax: CHO, 100% = maximum response obtained with the Carbachol control, read-out: M1 Efficacy. The method in brief: as §1

Assay [3] has as its target T3, M3 muscarinic receptor (Homo sapiens, UniProt P20309).
T3 construct: expressed in transfected cells; host or cells: CHO (M3-CHO)
The experiment in a line: Functional mobilization of intracellular calcium (FLIPR) in CHO cells expressing M3. As to conditions: for EC50: CHO cells expressing M3, FLIPR calcium; for Emax: CHO, 100% = maximum response obtained with the Carbachol control, read-out: M3 Efficacy. The method in brief:
as §1

The target of assay [4] is T4, M4 muscarinic receptor (Homo sapiens, UniProt P08173).
T4 construct: expressed in transfected cells; host or cells: CHO (M4-CHO)
T4 sequence (P08173 1-479): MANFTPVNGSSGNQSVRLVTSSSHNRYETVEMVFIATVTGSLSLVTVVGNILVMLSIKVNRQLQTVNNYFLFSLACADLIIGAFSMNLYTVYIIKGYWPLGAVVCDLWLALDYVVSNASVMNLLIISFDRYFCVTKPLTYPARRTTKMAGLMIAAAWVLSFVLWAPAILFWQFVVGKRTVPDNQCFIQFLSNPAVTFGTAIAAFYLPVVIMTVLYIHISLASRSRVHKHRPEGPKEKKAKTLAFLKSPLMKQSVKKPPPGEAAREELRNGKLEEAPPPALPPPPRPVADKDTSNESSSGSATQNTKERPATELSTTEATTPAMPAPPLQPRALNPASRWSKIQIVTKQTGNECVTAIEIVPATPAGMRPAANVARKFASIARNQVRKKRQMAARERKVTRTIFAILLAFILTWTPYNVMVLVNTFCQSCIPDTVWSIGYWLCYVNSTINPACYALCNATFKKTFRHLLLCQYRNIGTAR
The assay can be described thus: Functional mobilization of intracellular calcium (FLIPR) in CHO cells expressing M4. To be noted: for EC50: CHO cells expressing M4, FLIPR calcium; for Emax: CHO, 100% = maximum response obtained with the Carbachol control, read-out: M4 Efficacy. The procedure, abridged:
as §1

T3 sequence (P20309 whole entry): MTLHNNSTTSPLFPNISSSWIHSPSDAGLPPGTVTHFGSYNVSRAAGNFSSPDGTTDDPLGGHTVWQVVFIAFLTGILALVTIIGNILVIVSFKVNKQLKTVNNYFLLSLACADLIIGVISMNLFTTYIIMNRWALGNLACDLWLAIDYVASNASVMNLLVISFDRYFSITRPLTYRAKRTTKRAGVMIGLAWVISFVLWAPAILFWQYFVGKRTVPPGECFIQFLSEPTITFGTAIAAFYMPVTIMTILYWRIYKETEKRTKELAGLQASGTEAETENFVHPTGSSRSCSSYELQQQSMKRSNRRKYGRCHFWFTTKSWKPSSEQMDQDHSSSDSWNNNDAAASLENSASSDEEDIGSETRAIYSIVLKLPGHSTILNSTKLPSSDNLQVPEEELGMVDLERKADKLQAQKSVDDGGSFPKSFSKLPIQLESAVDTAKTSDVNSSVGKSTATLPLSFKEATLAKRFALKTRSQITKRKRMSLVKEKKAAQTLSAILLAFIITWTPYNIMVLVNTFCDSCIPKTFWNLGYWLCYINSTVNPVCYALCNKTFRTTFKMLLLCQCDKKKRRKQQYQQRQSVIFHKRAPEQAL

One may read the EC50 as the midpoint of the concentration-response curve. On to `CC(C)(C)CCN1CCC2(CC[C@H](NC(=O)CCN3CCCC3=O)c3ccccc32)CC1` [compound 124], for which the EC50 in assay [1] is below 2 µM; in assay [2], below 2 µM; in assay [3], above 5 µM; in assay [4], below 2 µM. In addition, the Emax was 25 to 100% in assay [1], 25 to 100% in assay [2], below 25% in assay [3] and 25 to 100% in assay [4].
`CC(C)CCN1CCC2(CC[C@H](NC(=O)C3CC3)c3ccccc32)CC1` [compound 125]: the EC50 in assay [1] was 2 to 5 µM; in assay [2] it was below 2 µM; in assay [3], above 5 µM; in assay [4], below 2 µM. For the same compound, the Emax in assay [1] is below 25%; in assay [2], 25 to 100%; in assay [3], below 25%; in assay [4], 25 to 100%.
In the case of `CC(C)[C@@H](C(=O)N[C@@H]1CCC2(CCN(CCC(C)(C)C)CC2)c2ccccc21)N1CCCC1=O` [compound 126], the EC50 is above 5 µM in assay [1], above 5 µM in assay [2], above 5 µM in assay [3] and below 2 µM in assay [4]. The Emax is below 25% in assay [1], below 25% in assay [2], below 25% in assay [3] and 25 to 100% in assay [4].
Regarding `CCN(C(=O)CCC(=O)NC)[C@H]1CCC2(CCN(CCC(C)(C)C)CC2)c2ccccc21` [compound 127], the EC50 in assay [1] was 2 to 5 µM; in assay [2], below 2 µM; in assay [3], above 5 µM; in assay [4] it was below 2 µM. In addition, the Emax in assay [1] is below 25%; in assay [2] it was 25 to 100%; in assay [3], below 25%; in assay [4], 25 to 100%.
Turning to `CCN(C(=O)c1cncn1C)[C@H]1CCC2(CCN(CCC(C)(C)C)CC2)c2ccccc21` [compound 128], the EC50 was above 5 µM in assay [1], 2 to 5 µM in assay [2], above 5 µM in assay [3] and below 2 µM in assay [4]. The Emax in assay [1] is below 25%; in assay [2], 25 to 100%; in assay [3] it was below 25%; in assay [4], 25 to 100%.
Regarding `Cn1cc(C(=O)N[C@@H]2CCC3(CCN(CCC(C)(C)C)CC3)c3ccccc32)cn1` [compound 129], the concentration giving a half-maximal response (EC50) in assay [1] was above 5 µM; in assay [2], above 5 µM; in assay [3], above 5 µM; in assay [4], below 2 µM. Moreover, the Emax in assay [1] is below 25%; in assay [2], below 25%; in assay [3] it was below 25%; in assay [4], 25 to 100%.
In the case of `CC(=O)N1CCC(C(=O)N(C)[C@H]2CCC3(CCN(CCC(C)(C)C)CC3)c3ccccc32)CC1` [compound 132], the EC50 was above 5 µM in assay [1], 2 to 5 µM in assay [2], above 5 µM in assay [3] and below 2 µM in assay [4]. The Emax in assay [1] was below 25%; in assay [2], 25 to 100%; in assay [3], below 25%; in assay [4], 25 to 100%.
As to `CC(C)(C)CCN1CCC2(CC[C@@H](NC(=O)C3CCCO3)c3ccc(F)cc32)CC1` (stereo partly shown) [compound 133], the EC50 in assay [1] was below 2 µM; in assay [2] it was below 2 µM; in assay [3], above 5 µM; in assay [4], below 2 µM. Besides, the Emax in assay [1] was 25 to 100%; in assay [2], 25 to 100%; in assay [3], below 25%; in assay [4], 25 to 100%.
In the case of `CC(C)(C)CCN1CCC2(CC[C@@H](NC(=O)Cc3cccnc3)c3ccccc32)CC1` [compound 134], the EC50 in assay [1] was above 5 µM; in assay [2], above 5 µM; in assay [3] it was above 5 µM; in assay [4], below 2 µM. The Emax in assay [1] was below 25%; in assay [2], below 25%; in assay [3], below 25%; in assay [4] it was 25 to 100%.
For the compound `CC(C)(C)CCN1CCC2(CC[C@H](NC(=O)CC3CCOCC3)c3ccccc32)CC1` [compound 135], the EC50 in assay [1] was above 5 µM; in assay [2] it was below 2 µM; in assay [3], above 5 µM; in assay [4], below 2 µM. The Emax in assay [1] was below 25%; in assay [2] it was 25 to 100%; in assay [3], below 25%; in assay [4], 25 to 100%.
For the compound `CCN(C(=O)Cc1cccnc1)[C@H]1CCC2(CCN(CCC(C)(C)C)CC2)c2ccccc21` [compound 136], the EC50 was 2 to 5 µM in assay [1], 2 to 5 µM in assay [2], above 5 µM in assay [3] and below 2 µM in assay [4]. The Emax was below 25% in assay [1], 25 to 100% in assay [2], below 25% in assay [3] and 25 to 100% in assay [4].
Take `C[C@@H](C(=O)N[C@H]1CCC2(CCN(CCC(C)(C)C)CC2)c2ccccc21)N1CCCC1=O` [compound 137]: the EC50 in assay [1] was above 5 µM; in assay [2] it was below 2 µM; in assay [3], above 5 µM; in assay [4], below 2 µM. The Emax in assay [1] was below 25%; in assay [2], 25 to 100%; in assay [3], below 25%; in assay [4], 25 to 100%.
Regarding `CC(C)(C)CCN1CCC2(CC[C@H](NC(=O)CCN3CCCC3=O)c3ccc(F)cc32)CC1` [compound 138], the 50% effective concentration (EC50) in assay [1] is below 2 µM; in assay [2], below 2 µM; in assay [3], above 5 µM; in assay [4], below 2 µM. Besides, the Emax in assay [1] is 25 to 100%; in assay [2], 25 to 100%; in assay [3], below 25%; in assay [4], 25 to 100%.
`C[C@@H](O)CC(=O)N[C@@H]1CCC2(CCN(CCC(C)(C)C)CC2)c2ccccc21` [compound 139]: the EC50 in assay [1] is above 5 µM; in assay [2], 2 to 5 µM; in assay [3], above 5 µM; in assay [4], below 2 µM. Further, the Emax in assay [1] was below 25%; in assay [2] it was below 25%; in assay [3] it was below 25%; in assay [4], 25 to 100%.
Take `CCOCC(=O)N(CC)[C@H]1CCC2(CCN(CCC(C)(C)C)CC2)c2ccccc21` [compound 140]: the EC50 in assay [1] is above 5 µM; in assay [2] it was 2 to 5 µM; in assay [3], above 5 µM; in assay [4], below 2 µM. Besides, the Emax was below 25% in assay [1], 25 to 100% in assay [2], below 25% in assay [3] and 25 to 100% in assay [4].
For the compound `CC#CCN(C(C)=O)[C@H]1CCC2(CCN(CCC(C)C)CC2)c2ccccc21` [compound 141], the EC50 is above 5 µM in assay [1], below 2 µM in assay [2], above 5 µM in assay [3] and below 2 µM in assay [4]. In addition, the Emax in assay [1] is below 25%; in assay [2], 25 to 100%; in assay [3], below 25%; in assay [4], 25 to 100%.
Turning to `CC(C)CCN1CCC2(CC[C@H](N3C(=O)CCC3=O)c3ccccc32)CC1` [compound 142], the 50% effective concentration (EC50) in assay [1] is above 5 µM; in assay [2], 2 to 5 µM; in assay [3], above 5 µM; in assay [4] it was above 5 µM. The Emax is below 25% in assay [1], 25 to 100% in assay [2], below 25% in assay [3] and below 25% in assay [4].
